# Patent publication US20260199193A1, “POWDERY SOLID COSMETIC” (Shiseido Company, Ltd., priority 2022, published 2026)
# Peptide text beside a SMILES is read from it.
# Assay: log P value (octanol/water partition coefficient)
# Type: physicochemical
# Conditions: octanol / aqueous buffer solution at pH 7
# Text: The log P value of the nonionic water-soluble agent may be 1.8 or less, 1.5 or less, 1.3 or less, or 1.0 or less, and may be −4.0 or more, −3.8 or more, −3.5 or more, −3.3 or more, −3.0 or more, −2.7 or more, or −2.5 or more. The “log P value” herein is a parameter that represents the tendencies of partitioning of a substance into water and octanol, and is a value commonly used as an index to determine the degree of hydrophilicity or hydrophobicity of a substance. The smaller the log P value, the more hydrophilic the substance is meant to be. The larger the log P value, the more hydrophobic the substance is meant to be. The log P value may also be referred to as “octanol/water partition coefficient” according to the method of its calculation. The octanol/water partition coefficient can be determined by adding an agent into a flask containing octanol and an aqueous buffer solution at pH 7, shaking the flask, and then performing calculation according to the following Equation A based on the agent concentration in each phase: […]
row,SMILES,logP
1,Cc1ncc(CO)c(CO)c1O [pyridoxine],-0.8
2,OC[C@H]1O[C@H](O[C@H]2O[C@H](CO)[C@@H](O)[C@H](O)[C@H]2O)[C@H](O)[C@@H](O)[C@@H]1O [trehalose],-1.7
3,Nc1ncnc2c1ncn2[C@@H]1O[C@H](CO)[C@@H](O)[C@H]1O [adenosine],-1.1
4,CCOC1=C(O)[C@@H]([C@@H](O)CO)OC1=O [2-O-ethyl ascorbic acid],-1.5
5,C[N+](C)(C)CC(=O)[O-] [trimethylglycine],0.1
6,NC(=O)c1cccnc1 [niacinamide],-0.4
7,NCC(=O)NCC(=O)O [glycylglycine] (H-Gly-Gly-OH),-2.3
8,O=C1O[C@H]([C@@H](O)CO)C(O)=C1O [L-ascorbic acid],1.6
9,"NC[C@H]1CC[C@H](C(=O)O)CC1 [tranexamic acid, reference compound]",-2
10,"CC(O)CCO (stereo not drawn) [1,3-butylene glycol]",-0.4
11,OC[C@H]1O[C@@H](Oc2ccc(O)cc2)[C@H](O)[C@@H](O)[C@@H]1O [arbutin],-0.7
12,OCC(O)CO [Glycerin],-1.8
13,NCCS(=O)(=O)O [taurine],1.4
14,OC[C@@H](O)[C@H](O)[C@@H](O)CO [xylitol],-2.5
15,O=C1NCCN1CCO [1-(2-hydroxyethyl)-2-imidazolidinone],-1.4
